Our source for the IC50 values is PubChem BioAssay AID1417 (Emory University Molecular Libraries Screening Center, 2008).

Some results are limits rather than exact numbers.

Induced myeloid leukemia cell differentiation protein Mcl-1 (Homo sapiens), sequence (Q07820 whole entry, looked up): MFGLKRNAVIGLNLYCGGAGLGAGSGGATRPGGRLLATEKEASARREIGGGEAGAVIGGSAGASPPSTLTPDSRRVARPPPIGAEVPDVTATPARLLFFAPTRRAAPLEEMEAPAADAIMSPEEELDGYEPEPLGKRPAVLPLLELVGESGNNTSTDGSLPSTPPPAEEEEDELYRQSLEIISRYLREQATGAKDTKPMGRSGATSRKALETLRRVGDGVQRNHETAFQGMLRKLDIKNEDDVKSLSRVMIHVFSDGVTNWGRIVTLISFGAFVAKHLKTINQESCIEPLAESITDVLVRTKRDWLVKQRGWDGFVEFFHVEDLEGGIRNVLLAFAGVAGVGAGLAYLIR

This assay has as its target Induced myeloid leukemia cell differentiation protein Mcl-1 (Homo sapiens) (UniProt Q07820). The assay is described as follows: Mcl-1 Noxa peptide disruption concentration-response – biochemical, TR-FRET, dose response (AID 1417). To be noted: Mcl-1/Noxa peptide interaction, cell-free TR-FRET (terbium/rhodamine), 2 h; measured here: absolute IC50. On the technique in general: Time-resolved FRET reads energy transfer from a long-lived donor to a nearby acceptor.
Broadly, the IC50 is the midpoint of a concentration-inhibition curve. In the case of `Cc1[nH]c2ccccc2c1/C=C/c1nc2ccccc2c(=O)[nH]1`, the IC50 stood at 6260 nM.
`CC(=O)NC1=C(NC2CCS(=O)(=O)C2)C(=O)c2ccccc2C1=O` (configuration not stated) gave an IC50 of 2770 nM. Against the preceding molecule, the IC50 is about 2.3-fold lower.
`Cn1c(SCC(=O)Nc2ccc3nc(SCC(=O)N4CCCC4)sc3c2)nnc1-c1ccccc1`: the IC50 stood at 2240 nM.
In turn, `O=C(N/N=C/c1ccc(O)cc1O)c1ccc(CN2C(=O)c3cccc4cccc2c34)cc1` gave an IC50 of 1290 nM.
Take `CCCOc1ncnc2c1[nH]c1ccccc12`: the IC50 is over 54000 nM.
As to `Cc1ccc(S(=O)(=O)/N=C2/C=C(C3C(=O)CC(C)(C)CC3=O)C(=O)c3ccccc32)cc1`, the IC50 was found to be 2870 nM.
Take `CCOC(=O)N1CCN(c2c(NCCCN(CC)Cc3ccccc3)c(=O)c2=O)CC1`: the IC50 is 4060 nM.
`c1ccc(CN=C2NN=C(c3cc4ccccc4o3)CS2)cc1` yielded an IC50 of over 54000 nM.
As to `Cc1ccc(-n2cccc2/C=C2/C(=N)N3C(=NC2=O)SN=C3S(C)(=O)=O)cc1Cl`, the half-inhibitory concentration (IC50) came to 1100 nM. This lies in the single-digit micromolar range.
For `O=C1C(=Cc2ccc(Br)o2)C(=O)c2ccccc21` the value was under 400 nM; for `O=c1cc(-c2ccc([N+](=O)[O-])cc2)nc2cc(-c3ccc(Cl)cc3)[nH]n12`, 1630 nM.
For `Cc1ccc(-n2c(O)c(C=Nc3ccccc3-c3n[nH]c(=S)[nH]c3=O)c3ccccc3c2=O)cc1C` the value was 2750 nM; for `CCOc1ccccc1NC(=O)/C=C/C(N)=O`, over 54000 nM; for `COc1cc(C2Nc3cccc4cccc(c34)N2)cc(OC)c1OC(C)=O`, 2430 nM.
`COc1ccc(S(=O)(=O)Nc2cc(Sc3ncn[nH]3)c(O)c3ccccc23)cc1` had an IC50 of under 400 nM.
Take `CC(C)c1ccc(S(=O)(=O)/N=C2/C=CC(=O)c3ccccc32)cc1`: the IC50 was under 400 nM.
`O=C(O)Cc1c[nH]c2cccc(O)c12` returned an IC50 of 810 nM.
In turn, `N=C1/C(=C\c2ccc(-c3cccc(C(=O)O)c3)o2)C(=O)N=C2SC=C(c3ccccc3)N12` showed an IC50 of 1300 nM.
The same measure for `N#CC1=C(N)N(c2ccc(F)cc2)C2=C(C1c1ccc(O)cc1)S(=O)(=O)CC2` (configuration not stated): 3400 nM; for `O=C(O)C1Nc2c(C(=O)N3CCOCC3)cccc2C2C=CCC12` (configuration not stated): over 54000 nM; for `Cn1c(SCC(=O)Nc2ccc3nc(SCC(=O)N4CCCC4)sc3c2)nnc1-c1ccc(N)cc1`: 688 nM.
Consider `COc1ccc(NC(=S)NNc2ccc(S(=O)(=O)Nc3ccccc3C(=O)O)cc2[N+](=O)[O-])cc1`, for which the IC50 was over 54000 nM.
Regarding `Cc1ccc(N=C2NC(=O)/C(=C/C=C/c3ccco3)S2)cc1C`, the IC50 stood at 4620 nM.
In the case of `COc1ccc(/C=C2/C(=O)NC(=S)N(C3CC3)C2=O)cc1CN1C(=O)c2ccccc2C1=O`, the IC50 was 3110 nM.
Consider `c1coc(-c2nc3ccccc3nc2-c2ccco2)c1`, for which the IC50 was 5170 nM. This IC50 lies about 1.7-fold higher than the previous one.
For `COc1ccc(N2CCC(CNC(=O)Nc3ccc(Cl)cc3)C2)cc1` (configuration not stated) the value was 51700 nM.
On to `Cc1ccc(NC(=O)CSc2nnc(-c3ccco3)c(-c3ccco3)n2)cc1`, for which the IC50 stood at 3290 nM.
Regarding `CCCCCn1c(N)c(-c2nc3ccccc3o2)c2c([N+](=O)[O-])nn(CC)c(=O)c21`, the IC50 was determined as 2800 nM.
The molecule `O=C(Nc1ccc([N+](=O)[O-])cc1)Nc1ccc(N2CCOCC2)c2nonc12` yielded an IC50 of 4630 nM.
The molecule `CCOc1cc(CNc2ccc(N3CCCC3)cc2)cc(Cl)c1OC` came in with an IC50 of over 54000 nM.
On to `O=C(/C=C/c1cccnc1)c1ccc(O)cc1`, for which the IC50 is over 54000 nM.
Take `COc1ccc(N2Cc3cccc(C(=O)N4CCN(C(=O)c5ccco5)CC4)c3C2=O)cc1`: the IC50 came to 1770 nM.
Take `COc1ccc(N=C2S/C(=C\c3ccc(OC(C)C(=O)O)c(OC)c3)C(=O)N2CCc2c[nH]c3ccccc23)cc1` (configuration not stated): the IC50 turned out to be 7310 nM.
`O=C1CCCCC1C(=O)c1ccccc1` (configuration not stated) came in with an IC50 of over 54000 nM.
Turning to `O=c1oc2ccccc2c2oc3cc(O)c(O)cc3c12`, the IC50 was under 400 nM.
For `C=C(C)C(=O)Nc1cccc(C2=NOC3(C2)C[C@@H](C(N)=O)N(C(=O)c2ccc(Cl)cc2)C3)c1` (some centres not stated) the value was under 400 nM.
Take `Oc1cccc2cc3cccc(O)c3c(O)c12`: the IC50 was determined as 1960 nM. This lies in the single-digit micromolar range.
The molecule `O=C(Nc1ccc2c(c1)nc1n2CCN(C2CCCCC2)C1)c1ccco1` came in with an IC50 of 9740 nM.
In turn, `Cc1ccc(NC(=O)CN2C(=O)/C(=C3\SC(=S)N(C4CCS(=O)(=O)C4)C3=O)c3ccccc32)cc1` (configuration not stated) gave an IC50 of under 400 nM.
Turning to `COc1ccc(C(=O)n2nc(C)c(Br)c2C)cc1`, the IC50 is over 54000 nM.
`CCCOc1ccc(C(=O)Nc2ccc(N(C)C)cc2)cc1` yielded an IC50 of over 54000 nM.
In turn, `CCOc1ccc(N=C2NC(=O)S/C2=C\c2ccc(O)cc2)cc1` displayed an IC50 of 1260 nM.
The same measure for `Cc1ccc(-n2nc3cc(C)c(N)cc3n2)cc1`: under 400 nM; for `CC(C)c1nc2sc3c(=O)[nH]c(=S)[nH]c3c2c2c1CCC2`: 7390 nM; for `O=C(O)C[C@@H]1C(=O)O[C@@H]2C(COC(=O)c3cc(O)c(O)c(O)c3)O[C@@H](OC(=O)c3cc(O)c(O)c(O)c3)[C@@H](OC(=O)c3cc(O)c(O)c4c3[C@H]1[C@H](O)C(=O)O4)[C@H]2OC(=O)c1cc(O)c(O)c(O)c1` (some centres not stated): under 400 nM.
The molecule `CC(=O)N1CCc2cc(S(=O)(=O)NC(Cc3ccccc3)C(=O)NC3CCCCCC3)ccc21` (configuration not stated) had an IC50 of over 54000 nM.
Take `CC1=NOC(=O)/C1=C\c1ccc(-c2ccc(Cl)cc2Cl)o1`: the IC50 is under 400 nM.
For `COc1cc(/C=C2\SC(=O)NC2=O)ccc1Oc1ccc([N+](=O)[O-])cc1[N+](=O)[O-]` the value was 3290 nM; for `CCOc1c(Cl)cc(CNc2ccc(N3CCCC3)cc2)cc1OC`, 1580 nM.
Turning to `Cc1ccc2c(c1C)NC(C(=O)O)C1CC=CC21` (configuration not stated), the IC50 came out at 1070 nM.
The molecule `CCOc1cc(/C=C(\C#N)c2[nH]nc(N)c2C#N)ccc1O` returned an IC50 of 4600 nM.
For `O=[N+]([O-])c1cc(Br)c(O)c(/C=N/Nc2nc3ccccc3s2)c1` the value was under 400 nM; for `O=C(O)c1ccc(-n2cccc2/C=N\NC(=O)c2cc3cc(Br)ccc3o2)cc1`, 915 nM; for `CCOC(=O)/C=C(\C)Sc1cc(O)c2ccccc2c1O`, under 400 nM.
`O=C1NN(c2ccc(F)c(Cl)c2)C(=O)/C1=C\c1cccc(OC(=O)c2cccs2)c1` gave an IC50 of 6860 nM.
Take `CCCCCCCCCCCCCCCC[n+]1cccc2ccccc21`: the IC50 is 5340 nM.
`Cc1oc(-c2ccc(Cl)cc2)cc1-c1nn2c(-c3ccoc3C)nnc2s1` had an IC50 of over 54000 nM.
`COc1ccc(N2C(=O)C3CCCN3C2=O)cc1` (configuration not stated) showed an IC50 of over 54000 nM.
Molecule `CN(C)c1ccc(/C=C/c2ccc3c4ccccc4ccc3[n+]2-c2ccccc2)cc1` had an IC50 of over 54000 nM.
`COc1ccc2nc(N3C(=O)/C(=C/c4ccc(Cl)cc4)NC3=S)sc2c1` displayed an IC50 of 1430 nM.
For `Nc1c(C(=O)NCc2ccco2)sc2nc3c(cc12)C(=O)CCC3`, the IC50 turned out to be 2340 nM.
With `CCOC(=O)NNc1ccc2nonc2c1[N+](=O)[O-]`, the IC50 was under 400 nM.
Turning to `O=C(N=Nc1c(O)n(Cc2ccccc2)c2ccccc12)c1cc2ccccc2cc1O`, the IC50 is 4760 nM.
In the case of `O=C(Cc1csc(N2CCOCC2)n1)N/N=C/c1ccc(O)c(O)c1O`, the IC50 was under 400 nM.
The same measure for `O=[N+]([O-])c1ccc(N/N=C/c2ccc(O)c(O)c2O)c(S(=O)(=O)N2CCOCC2)c1`: under 400 nM.
As for `C/C(=N\Nc1cccc(C(=O)O)c1)c1ccc2c(c1)Nc1ccccc1S2`, the IC50 was under 400 nM.
In turn, `O=C1NC(=S)/C(=C\c2ccc(-c3ccccc3Cl)o2)S1` came in with an IC50 of 2130 nM.
